Experimental data from patent publication US20240360148A1 (SUVALENT THERAPEUTICS, INC., priority 2021, published 2024).

Each compound was assayed against SAE1 (Homo sapiens (Human), UniProt Q9UBE0+Q9UBT2) (assay: SAE High Throughput Biochemical Assay (HTRF), 15 min preincubation). Details: read-out: 15 min preincubation HTRF IC50 (μM) Ave, SAE1 12.5 nM, ATP 100 μM.
Protocol: Assay buffer was prepared [50 mM HEPES, pH 7.5, 0.1% BSA and 10 mM MgCl2] as was the Stop Buffer [100 mM HEPES, pH 7.5, 0.05% Tween20, and 410 mM KF]. The 2×Reaction Buffer [80 nM SUMO-GST, 80 nM UBC9-His, 200 μM ATP and diluted in Assay Buffer] and Antibody Reaction Mix [13.34 nM anti-GSTXL665, 1.66 nM anti-His EuK and Diluted in Stop Buffer] were also prepared. Compounds were dissolved at 200×in DMSO in a 384-well plate. Serial dilutions were performed in DMSO for each compound, and then each concentration was diluted another 50-fold in Assay Buffer, to 4× the final concentration. 2.5 μL of each concentration was transferred into its own well in a 384-well plate. SAE1 was then diluted to 4× in Assay Buffer, and 2.5 μL of 4×SAE1 was mixed into each compound-containing well. After incubating for 15 minutes at RT, 5 μL of 2×Reaction Buffer was mixed into every well. Then after another 45 minutes at RT, 10 μL of Antibody Reaction Mix was added and mixed into every well. This plate was then read on an HTRF-compatible plate reader after 2 hours at RT, and again after sitting at RT overnight. [Final Component Concentrations: SAE1: 12.5 nM; SUMO-GST: 40 nM; UBC9-His: 40 nM; Anti-GST-XL665: 6.67 nM; Anti-His-EuK: 0.83 nM; and ATP: 100 μM] Alternatively, the compounds are tested at a single concentration of 25 micromolar and the percent of control is measured.

SAE1, sequence (Q9UBE0 whole entry): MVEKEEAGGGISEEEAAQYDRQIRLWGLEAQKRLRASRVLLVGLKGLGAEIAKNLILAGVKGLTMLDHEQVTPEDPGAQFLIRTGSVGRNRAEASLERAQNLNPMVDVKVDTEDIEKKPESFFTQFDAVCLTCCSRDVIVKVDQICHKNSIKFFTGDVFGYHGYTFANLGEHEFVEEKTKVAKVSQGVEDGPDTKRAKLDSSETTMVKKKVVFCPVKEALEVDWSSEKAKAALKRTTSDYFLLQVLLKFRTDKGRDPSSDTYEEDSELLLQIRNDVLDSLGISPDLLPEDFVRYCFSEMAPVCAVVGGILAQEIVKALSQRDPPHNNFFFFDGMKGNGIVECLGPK
SAE1, sequence (Q9UBT2 whole entry): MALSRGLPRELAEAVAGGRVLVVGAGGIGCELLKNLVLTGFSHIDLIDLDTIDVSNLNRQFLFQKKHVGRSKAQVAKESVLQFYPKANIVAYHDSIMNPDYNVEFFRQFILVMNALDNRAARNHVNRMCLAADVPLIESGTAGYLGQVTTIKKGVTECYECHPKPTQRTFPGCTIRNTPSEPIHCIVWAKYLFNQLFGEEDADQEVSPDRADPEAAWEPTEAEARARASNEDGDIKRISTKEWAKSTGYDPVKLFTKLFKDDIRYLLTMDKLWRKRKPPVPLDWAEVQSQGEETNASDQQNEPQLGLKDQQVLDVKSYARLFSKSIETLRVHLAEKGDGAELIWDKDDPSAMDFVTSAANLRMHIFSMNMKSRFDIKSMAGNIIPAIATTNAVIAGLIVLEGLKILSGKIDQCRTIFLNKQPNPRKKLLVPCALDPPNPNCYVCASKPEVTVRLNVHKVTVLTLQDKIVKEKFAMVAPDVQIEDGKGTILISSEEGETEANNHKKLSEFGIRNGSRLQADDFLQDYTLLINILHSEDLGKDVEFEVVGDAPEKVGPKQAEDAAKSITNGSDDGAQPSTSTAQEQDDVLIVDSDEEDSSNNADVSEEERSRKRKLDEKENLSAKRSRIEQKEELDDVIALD

Point of comparison: `CCn1cc(-c2ccccc2C2CN(C(=O)/C=C/CN(C)C)Cc3sc(C#N)c(F)c32)c(C(F)(F)F)n1` (centres unmarked) [Example 213, (E)-6-(4-(dimethylamino)but-2-enoyl)-4-(2-(1-ethyl-3-(trifluoromethyl)-1 H pyrazol-4-yl)phenyl)-3-fluoro-4,5,6,7-tetrahydrothieno[2,3-c]pyridine-2-carbonitrile], IC50 8.81 µM. Against it:
- CCn1cc(-c2c(F)cccc2[C@@H]2CN(C(=O)/C=C/[C@@H](C)NC)Cc3sc(C#N)c(C)c32)c(C(F)(F)F)n1 [Example 218, (S)-4-(2-(1-ethyl-3-(trifluoromethyl)-1 H-pyrazol-4-yl)-3-fluorophenyl)-3-methyl-6-((R, E)-4-(methylamino)pent-2-enoyl)-4,5,6,7-tetrahydrothieno[2,3-c]pyridine-2-carbonitrile] — 11-fold lower, 0.81 µM
- CCn1cc(-c2ccccc2[C@@H]2CN(C(=O)/C=C/C(C)(C)NC)Cc3sc(C#N)cc32)c(C(F)(F)F)n1 [Example 38, (S, E)-4-(2-(1-ethyl-3-(trifluoromethyl)-1 H-pyrazol-4-yl)phenyl)-6-(4-methyl-4-(methylamino)pent-2-enoyl)-4,5,6,7-tetrahydrothieno[2,3-c]pyridine-2-carbonitrile] — higher, > 25 µM
- C=C(C(=O)N1Cc2sc(C#N)cc2[C@H](c2ccccc2-c2cn(CC)nc2C(F)(F)F)C1)c1ccccc1 [Example 63, (S)-4-(2-(1-Ethyl-3-(trifluoromethyl)-1H pyrazol-4-yl)phenyl)-6-(2-phenylacryloyl)-4,5,6,7-tetrahydrothieno[2,3-c]pyridine-2-carbonitrile] — higher, > 25 µM
- CCOC(=O)CCn1cc(-c2ccccc2[C@@H]2CN(C(=O)/C=C/CN(C)C)Cc3sc(C#N)cc32)c(C(F)(F)F)n1 [Example 170, Ethyl (S,E)-3-(4-(2-(2-cyano-6-(4-(dimethylamino)but-2-enoyl)-4,5,6,7-tetrahydrothieno[2,3-c]pyridin-4-yl)phenyl)-3-(trifluoromethyl)-1H pyrazol-1-yl)propanoate] — within 1.5-fold, 10.2 µM
- CCn1cc(-c2ccccc2[C@@H]2CN(C(=O)/C=C/CN3CCC[C@H]3C(=O)O)Cc3sc(C#N)cc32)c(C(F)(F)F)n1 [Example 6, ((E)-4-((S)-2-cyano-4-(2-(1-ethyl-3-(trifluoromethyl)-1 H-pyrazol-4-yl)phenyl)-4,7-dihydrothieno[2,3-c]pyridin-6(5H)-yl)-4-oxobut-2-en-1-yl)proline] — within 1.5-fold, 7.43 µM
- CCn1cc(-c2ccccc2[C@@H]2CN(C(=O)/C=C/[C@H]3CCC(C)(C)N3)Cc3sc(C#N)cc32)c(C(F)(F)F)n1 [Example 78, (S)-6-((E)-3-((R)-5,5-Dimethylpyrrolidin-2-yl)acryloyl)-4-(2-(1-ethyl-3-(trifluoromethyl)-1H pyrazol-4-yl)phenyl)-4,5,6,7-tetrahydrothieno[2,3-c]pyridine-2-carbonitrile] — within 1.5-fold, 6 µM
- CCn1cc(-c2ccccc2[C@@H]2CN(C(=O)C#CC3CCCNC3)Cc3sc(C#N)cc32)c(C(F)(F)F)n1 (stereo partly drawn) [Example 145, (4S)-4-(2-(1-Ethyl-3-(trifluoromethyl)-1 H-pyrazol-4-yl)phenyl)-6-(3-(piperidin-3-yl)propioloyl)-4,5,6,7-tetrahydrothieno[2,3-c]pyridine-2-carbonitrile] — 1.6-fold lower, 5.62 µM
- CCn1cc(-c2ccccc2[C@@H]2CN(C(=O)/C=C/CCN(C)C)Cc3sc(C#N)cc32)c(C(F)(F)F)n1 [Example 16] — 2.1-fold higher, 18.1 µM
- CN(C)C/C=C/C(=O)N1Cc2sc(C#N)cc2C(c2ccccc2-c2cn(CCC#N)nc2C(F)(F)F)C1 (centres unmarked) [Example 154, (E)-4-(2-(1-(2-Cyanoethyl)-3-(trifluoromethyl)-1H pyrazol-4-yl)phenyl)-6-(4-(dimechylamino)but-2-enoyl)-4,5,6,7-tetrahydrothieno[2,3-c]pyridine-2-carbonitrile] — within 1.5-fold, 7.34 µM
- CC(C(=O)N(C)C)n1cc(-c2ccccc2[C@@H]2CN(C(=O)/C=C/CN(C)C)Cc3sc(C#N)cc32)c(C(F)(F)F)n1 (stereo partly drawn) [Example 163, 2-(4-(2-((S)-2-Cyano-6-((E)-4-(dimethylamino)but-2-enoyl)-4,5,6,7-tetrahydrothieno[2,3-c]pyridin-4-yl)phenyl)-3-(trifluoromethyl)-1 H-pyrazol-1-yl)-N, N-dimethylpropanamide] — within 1.5-fold, 8.68 µM
- CC(C(=O)N(C)C)n1cc(-c2ccccc2[C@@H]2CN(C(=O)/C=C/CN(C)C)Cc3sc(C#N)cc32)c(C(F)(F)F)n1 (stereo partly drawn) [Example 164, 2-(4-(2-((S)-2-Cyano-6-((E)-4-(dimethylamino)but-2-enoyl)-4,5,6,7-tetrahydrothieno[2,3-c]pyridin-4-yl)phenyl)-3-(trifluoromethyl)-1 H-pyrazol-1-yl)-N, N-dimethylpropanamide] — within 1.5-fold, 10.9 µM
- CCn1cc(-c2ccccc2[C@@H]2CN(C(=O)/C=C/[C@H](C)N)Cc3sc(C#N)cc32)c(C(F)(F)F)n1 [Example 49, (S)-6-((S,E)-4-aminopent-2-enoyl)-4-(2-(1-ethyl-3-(trifluoromethyl)11 H-pyrazol-4-yl)phenyl)-4,5,6,7-tetrahydrothieno[2,3-c]pyridine-2-carbonitrile] — within 1.5-fold, 10.1 µM
- CCn1cc(-c2c(F)cccc2[C@@H]2CN(C(=O)/C=C/[C@@H](C)NC)Cc3sc(C#N)cc32)c(C(F)(F)F)n1 [Example 88, (S)-4-(2-(1-Ethyl-3-(trifluoromethyl)-1H pyrazol-4-yl)-3-fluorophenyl)-6-((R,E)-4-(methylamino)pent-2-enoyl)-4,5,6,7-tetrahydrothieno[2,3-c]pyridine-2-carbonitrile] — 3.3-fold lower, 2.7 µM
- CN(C)C/C=C/C(=O)N1Cc2sc(C#N)cc2C(c2ccccc2-c2c[nH]nc2C(F)(F)F)C1 (centres unmarked) [Example 152, (E)-6-(4-(Dimethylamino)but-2-enoyl)-4-(2-(3-(trifluoromethyl)-1H-pyrazol-4-yl)phenyl)-4,5,6,7-tetrahydrothieno[2,3-c]pyridine-2-carbonitrile] — within 1.5-fold, 10.4 µM
- CN(C)C/C=C/C(=O)N1Cc2sc(C#N)cc2[C@H](c2ccccc2-c2cn(Cc3ncno3)nc2C(F)(F)F)C1 [Example 166, (S,E)-4-(2-(1-((1,2,4-Oxadiazol-5-yl)methyl)-3-(trifluoromethyl)-1H pyrazol-4-yl)phenyl)-6-(4-(dimethylamino)but-2-enoyl)-4,5,6,7-tetrahydrothieno[2,3-c]pyridine-2-carbonitrile] — 2.3-fold higher, 19.9 µM
- CCn1cc(-c2c(C3CN(C(=O)/C=C/CN(C)C)Cc4sc(C#N)cc43)cnn2C)c(C(F)(F)F)n1 (centres unmarked) [Example 198, (E)-6-(4-(Dimethylamino)but-2-enoyl)-4-(1′-ethyl-2-methyl-3′-(trifluoromethyl)-1′H,2H-[3,4′-bipyrazol]-4-yl)-4,5,6,7-tetrahydrothieno[2,3-c]pyridine-2-carbonitrile] — higher, > 25 µM
- CCn1cc(-c2ccccc2[C@@H]2CN(C(=O)/C=C/C3COCCN3)Cc3sc(C#N)cc32)c(C(F)(F)F)n1 (stereo partly drawn) [Example 76, (4S)-4-(2-(1-Ethyl-3-(trifluoromethyl)-1 H-pyrazol-4-yl)phenyl)-6-((E)-3-(morpholin-3-yl)acryloyl)-4,5,6,7-tetrahydrothieno[2,3-c]pyridine-2-carbonitrile] — 1.7-fold higher, 14.7 µM
- CCn1cc(-c2ccccc2[C@@H]2CN(C(=O)/C=C/C(c3ccccc3)N(C)C)Cc3sc(C#N)cc32)c(C(F)(F)F)n1 (stereo partly drawn) [Example 26, (4S)-6-((E)-4-(Dimethylamino)-4-phenylbut-2-enoyl)-4-(2-(1-ethyl-3-(trifluoromethyl)-1 H-pyrazol-4-yl)phenyl)-4,5,6,7-tetrahydrothieno[2,3-c]pyridine-2-carbonitrile] — within 1.5-fold, 7.92 µM
- CN(C)C/C=C/C(=O)N1Cc2sc(C#N)cc2[C@H](c2ccccc2-c2cn(CC(F)F)nc2C(F)(F)F)C1 [Example 18, (S,E)-4-(2-(1-(2,2-difluoroethyl)-3-(trifluoromethyl)-1 H-pyrazol-4-yl)phenyl)-6-(4-(dimethylamino)but-2-enoyl)-4,5,6,7-tetrahydrothieno[2,3-c]pyridine-2-carbonitrile] — within 1.5-fold, 8.99 µM
- CCn1cc(-c2c(F)cccc2[C@@H]2CN(C(=O)/C=C/CNC3CCN(C(C)=O)C3)Cc3sc(C#N)cc32)c(C(F)(F)F)n1 (stereo partly drawn) [Example 58, (4S)-6-((E)-4-((1-acetylpyrrolidin-3-yl)amino)but-2-enoyl)-4-(2-(1-ethyl-3-(trifluoromethyl)-1 H-pyrazol-4-yl)-3-fluorophenyl)-4,5,6,7-tetrahydrothieno[2,3-c]pyridine-2-carbonitrile] — within 1.5-fold, 6.06 µM
- CN(C)C/C=C/C(=O)N1Cc2sc(C#N)cc2[C@H](c2ccccc2-c2cn(-c3ncccc3F)nc2C(F)(F)F)C1 [Example 158, (S,E)-6-(4-(Dimethylamino)but-2-enoyl)-4-(2-(1-(3-fluoropyridin-2-yl)-3-(trifluoromethyl)-1H pyrazol-4-yl)phenyl)-4,5,6,7-tetrahydrothieno[2,3-c]pyridine-2-carbonitrile] — within 1.5-fold, 6.37 µM
- CCn1cc(-c2ccc(O)cc2C2CN(C(=O)/C=C/CN(C)C)Cc3sc(C#N)cc32)c(C(F)(F)F)n1 (centres unmarked) [Example 205, (E)-6-(4-(Dimethylamino)but-2-enoyl)-4-(2-(1-ethyl-3-(trifluoromethyl)-1 H-pyrazol-4-yl)-5-hydroxyphenyl)-4,5,6,7-tetrahydrothieno[2,3-c]pyridine-2-carbonitrile] — higher, > 25 µM
